Data published in PubChem BioAssay AID623909 (Vanderbilt High Throughput Screening Facility, 2012).
pEC50: −log10 of the molar value. Activity calls are given as the source filed them. No rule for the calls is given here.

target: G protein-activated inward rectifier potassium channel 2 (Homo sapiens) + G protein-activated inward rectifier potassium channel 1 (Homo sapiens) (UniProt P48051+P48549); test: GIRK1/2 channel activators, dose response, cell-based, thallium flux, HEK-293 (AID 623909); settings: HEK-293 hGIRK1/2, thallium flux FluoZin-2 fluorescence
Sequence (P48051 whole entry, looked up): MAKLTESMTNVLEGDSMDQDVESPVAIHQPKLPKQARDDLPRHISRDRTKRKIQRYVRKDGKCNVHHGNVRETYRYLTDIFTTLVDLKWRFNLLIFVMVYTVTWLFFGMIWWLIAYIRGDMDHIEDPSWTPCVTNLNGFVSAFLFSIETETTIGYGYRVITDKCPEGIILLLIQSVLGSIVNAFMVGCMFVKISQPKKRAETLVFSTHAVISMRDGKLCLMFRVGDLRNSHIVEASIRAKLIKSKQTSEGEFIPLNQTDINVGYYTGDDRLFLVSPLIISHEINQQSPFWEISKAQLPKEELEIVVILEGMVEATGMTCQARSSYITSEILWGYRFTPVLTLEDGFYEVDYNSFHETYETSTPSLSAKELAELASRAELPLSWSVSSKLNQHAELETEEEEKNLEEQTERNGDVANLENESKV
Sequence (P48549 whole entry, looked up): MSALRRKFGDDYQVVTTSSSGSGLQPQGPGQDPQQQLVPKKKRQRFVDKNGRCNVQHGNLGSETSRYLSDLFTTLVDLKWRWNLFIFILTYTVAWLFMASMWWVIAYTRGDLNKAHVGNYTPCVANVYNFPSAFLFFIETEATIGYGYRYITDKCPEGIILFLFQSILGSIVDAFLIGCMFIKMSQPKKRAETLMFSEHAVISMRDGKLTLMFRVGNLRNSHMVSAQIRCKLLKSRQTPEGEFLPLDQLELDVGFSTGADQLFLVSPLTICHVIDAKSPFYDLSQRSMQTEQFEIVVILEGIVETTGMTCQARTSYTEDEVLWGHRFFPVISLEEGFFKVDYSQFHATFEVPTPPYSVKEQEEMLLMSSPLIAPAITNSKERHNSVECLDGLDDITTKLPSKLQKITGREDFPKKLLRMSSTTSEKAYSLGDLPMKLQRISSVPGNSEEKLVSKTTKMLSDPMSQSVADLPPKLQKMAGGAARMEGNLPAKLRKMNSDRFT

Going from `CN(C)S(=O)(=O)N(CC(=O)Nc1ccc2ccccc2c1)c1ccccc1` to `CSc1cccc(NC(=O)CN(c2ccccc2)S(=O)(=O)N(C)C)c1`, the pEC50 falls from 5.14 to 4.52 (0.62 log units). The first is the more potent here.

Going from `COc1ccc(Br)cc1CNC(=O)Nc1cccs1` to `COc1cccc(NC(=O)Nc2cccs2)c1`, the pEC50 falls from 5.76 to 5.14 (0.62 log units). The first is the more potent here.

`Cc1ccc(NC(=O)COC(=O)/C=C/c2ccco2)cc1S(=O)(=O)N(C)C` and `Cc1ccc(NC(=O)COC(=O)CCC(=O)c2ccc(Cl)cc2)cc1S(=O)(=O)N(C)C` are the same in pEC50: 4.52 for the first, 4.52 for the second.

Going from `CCOC(=O)Cc1csc(NC(=O)Nc2ccccc2)n1` to `O=C(Nc1ccccc1)Nc1nccs1`, the pEC50 falls from 5.13 to 4.52 (0.61 log units).

First: COc1cccc(NC(=O)Cn2cc(C#N)c3ccccc32)c1
Second: COc1cccc(NC(=O)CC2COc3ccccc3O2)c1 (configuration not stated)
The pEC50 of the first is 1.26 log units higher: 5.78 for the first, 4.52 for the second.

`Cc1ccc(NC(=O)CN2c3cccc4cccc(c34)S2(=O)=O)cc1S(=O)(=O)N1CCOCC1` and `Cc1ccc(NC(=O)Cc2ccccc2Cl)cc1S(=O)(=O)N(C)C` are within 0.2 log units of each other in pEC50: 5.65 for the first, 5.58 for the second.

Going from `COc1ccc(C(=O)NC(=S)NC(C)C)cc1Br` to `CCOC(=O)c1ccc(NC(=O)Nc2ccc(OC)c(OC)c2)cc1`, the pEC50 falls from 5.65 to 5.26 (0.39 log units).

First: O=C(Cc1ccccc1)N/N=C/c1cccn1-c1ccc([N+](=O)[O-])cc1
Second: Cc1ccccc1OCC(=O)N/N=C/c1cccn1C
The pEC50 of the first is 1.33 log units higher: 5.85 for the first, 4.52 for the second.

First: Cc1ccc(Cl)cc1NC(=S)NCc1cccn1C
Second: S=C(Nc1cccc(Cl)c1)Nc1ccccc1Oc1ccccc1
The pEC50 of the first is 0.30 log units lower: 4.79 for the first, 5.09 for the second.

First: CC1CC(C)CN(C(=S)Nc2ccc(SC(F)F)cc2)C1 (configuration not stated)
Second: COc1ccc(NC(=O)Nc2ccccc2C(=O)N2CCCC2)cc1
The pEC50 of the first is 0.46 log units higher: 4.98 for the first, 4.52 for the second. The first is the more potent here.

Going from `CC(/C=N/NC(=O)c1c(Br)cnn1C)=C\c1ccccc1` to `CC(Sc1nnnn1C)C(=O)Nc1ccc(Oc2ccccc2)cc1` (configuration not stated), the pEC50 falls from 5.45 to 4.52 (0.93 log units). The first is the more potent here.

Compared with `Cc1ccc(-c2nnn(CC(=O)NC3CC4CCC3C4)n2)cc1` (configuration not stated), `CCOC(=O)C(Cc1ccccc1)NC(=O)Cn1nnc(-c2ccccc2)n1` (configuration not stated) is 1.98 log units lower in pEC50: 6.50 for the first, 4.52 for the second.

First: Cc1ccc(CC(=O)N2CCN(c3cccc(C(F)(F)F)c3)CC2)cc1
Second: CN(C)S(=O)(=O)c1cccc(NC(=O)Cc2ccc(Cl)cc2)c1
The pEC50 of the first is 0.28 log units higher: 5.29 for the first, 5.01 for the second.

First: COc1ccc(Nc2nnc(Cc3ccccc3)c(=O)[nH]2)c(OC)c1
Second: CCOc1ccccc1Nc1nnc(Cc2ccccc2Cl)c(=O)[nH]1
The pEC50 of the first is 1.65 log units lower: 4.52 for the first, 6.17 for the second. The second is the more potent here.

Going from `CC(=O)c1sc(NC(=O)c2cc(-c3ccccc3)nn2-c2ccccc2)nc1C` to `Cc1cc(NC(=O)Nc2ccccc2)n(-c2ccccc2)n1`, the pEC50 falls from 6.05 to 5.43 (0.62 log units). The first is the more potent here.

Going from `CCOC(=O)C1=C(CC)Nc2ccccc2N=C1NC(=O)Nc1ccc(Cl)c(Cl)c1` to `COc1ccc(C)cc1NC(=O)Nc1ccccc1`, the pEC50 falls from 5.44 to 5.22 (0.22 log units).

`NC(=O)SCC(=O)Nc1ccc(Cl)cc1` and `O=C(Nc1ccc(Cl)cc1)Nc1nccs1` are within 0.2 log units of each other in pEC50: 5.38 for the first, 5.44 for the second.

Compared with `CCOc1ccc(OCCSc2nc3ccccc3[nH]2)cc1`, `Fc1ccc(CSc2nc3ccccc3[nH]2)c2ccccc12` is 0.34 log units lower in pEC50: 5.78 for the first, 5.44 for the second. The first is the more potent here.

First: C=C(C)C1CC=C(C)/C(=N/NC(=O)COc2cccc(C)c2)C1 (configuration not stated)
Second: CSc1cccc(NC(=O)COc2ccccc2)c1
The pEC50 of the first is 0.53 log units higher: 5.05 for the first, 4.52 for the second.

Compared with `O=C(NNC(=O)c1cccs1)Nc1cccc(Cl)c1`, `O=C(Nc1cccc(Cl)c1)Nc1nccs1` is 0.76 log units higher in pEC50: 4.95 for the first, 5.71 for the second. The second is the more potent here.

First: O=C(Nc1ccc(Cl)cc1)NC1CCCCC1Cc1ccco1 (configuration not stated)
Second: O=C(Nc1ccc(F)c(F)c1)NC1CCCCC1
The pEC50 of the first is 0.31 log units higher: 5.38 for the first, 5.07 for the second. The first is the more potent here.

`CCOc1ccc(NC(=O)NC23CC4CC(CC(C4)C2)C3)cc1` and `COc1ccc(NC(=O)Nc2cc(C)ccc2OC)cc1` are within 0.2 log units of each other in pEC50: 5.83 for the first, 5.69 for the second.

Compared with `CCCCc1ccc(NC(=S)Nc2ccc(Cl)c(S(=O)(=O)N(C)C)c2)cc1`, `CCCCc1ccc(NC(=S)Nc2cccnc2)cc1` is 0.35 log units lower in pEC50: 5.40 for the first, 5.05 for the second. The first is the more potent here.

First: COc1c(Cl)cc(Cl)cc1CNCCNCC(C)O (configuration not stated)
Second: CCc1ccc(CNCCNCC(C)O)cc1 (configuration not stated)
The pEC50 of the first is 0.67 log units higher: 6.30 for the first, 5.63 for the second. The first is the more potent here.

Compared with `Cc1nn(CC(=O)Nc2ccc(Cl)c(S(=O)(=O)N(C)C)c2)c(C)c1[N+](=O)[O-]`, `Cc1cc(C)n(-c2ccc(C(=O)OCC(=O)Nc3ccc(Cl)c(S(=O)(=O)N(C)C)c3)cc2)n1` is 0.53 log units higher in pEC50: 4.52 for the first, 5.05 for the second.

Going from `CCCN(CC1CC1)C(=S)Nc1ccc(Oc2ccccc2)cc1` to `CC1CCCN(Cc2cccc(Oc3ccccc3)c2)C1` (configuration not stated), the pEC50 falls from 5.45 to 4.52 (0.93 log units). The first is the more potent here.

First: COc1ccccc1Nc1ccc(Nc2ccccc2OC)nn1
Second: CSc1ccccc1NC(=O)Nc1ccccc1
The pEC50 of the first is 0.58 log units higher: 5.47 for the first, 4.89 for the second.

Compared with `CC(C)=CCC(C)(C)CNC(=O)NC1CCCCC1`, `COc1ccc(C)cc1NC(=O)NCCC1=CCCCC1` is 0.88 log units higher in pEC50: 4.52 for the first, 5.40 for the second. The second is the more potent here.

`CCCSc1nnc(Nc2ccccc2C)s1` and `CCSc1nnc(NC(=O)NC(CC)(C(F)(F)F)C(F)(F)F)s1` are the same in pEC50: 4.52 for the first, 4.52 for the second.

Going from `COc1ccc(C2CC(c3ccc(Cl)c(Cl)c3)Nc3nc(N)nn32)cc1` (configuration not stated) to `CCCn1c(C)cc(/C=C(\C#N)C(=O)OCC(=O)Nc2cccc(OC)c2)c1C`, the pEC50 falls from 5.62 to 4.52 (1.10 log units).

`COC(=O)[C@H](Cc1ccccc1)NC(=O)NCCC1=CCCCC1` and `Cc1cccc(NC(=O)NC(C)CCc2ccccc2)c1` (configuration not stated) are the same in pEC50: 4.52 for the first, 4.52 for the second.

Going from `O=C(/C=C/c1ccccc1)NC(NC(=S)Nc1cccc(Cl)c1)C(Cl)(Cl)Cl` (configuration not stated) to `CCOCc1c(C(=O)OCC(=O)Nc2ccc(C)c(S(=O)(=O)N(C)C)c2)oc2ccccc12`, the pEC50 falls from 5.23 to 4.52 (0.71 log units).

In the case of `C/C(CC(=O)NCC(C)C)=N\NC(=O)COc1cc(C)c(Br)cc1Br`, the pEC50 was 4.77.

same assay, conditions: HEK-293 hGIRK1/2, thallium flux FluoZin-2 fluorescence; at 90 µM (top of the series)

In the case of `CCOc1ccc(NC(=O)Nc2cccs2)cc1`, the “activation, % of glutamate” value was “inactive”.
In the case of `CSc1ccccc1NC(=O)Nc1ccc(Cl)cc1`, the “activation, % of glutamate” value was “inactive”.
